The values below come from patent US8716284B2, “Adamantyl diamide derivatives and uses of same” (H. Lundbeck A/S, priority 2008, dated 2014).

The target of this assay is T1, rat metabotropic glutamate receptor 5 (mGluR5) (Rattus norvegicus, UniProt P31424).
T1 construct: expressed in transfected cells; host or cells: HEK 293
As to the kind of experiment: Calcium mobilization assay (FLIPR) for negative or positive allosteric activity, HEK 293 cells. Type of assay: cell-based. The note with it: HEK293, negative allosteric modulation, inhibition of EC80 glutamate response; read-out: FLIPR maximum inhibition. The method, boiled down: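 HEK 293 cells stably expressing rat mGluR5, Fluo-4 loaded in HEPES-buffered HBSS pH 7.4 with 0.1% BSA and probenecid. Compound added with EC20 (potentiation) or EC80 (inhibition) glutamate; fluorescence read over 3 min at room temperature. Basal-subtracted maximum fluorescence change fitted to Hill equation.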
(In general: A change in cytosolic calcium serves as a functional read-out for many receptors and channels.)

Molecules are shown by their SMILES.

T1 sequence (P31424 21-1171 isoform P31424-2 limits assumed): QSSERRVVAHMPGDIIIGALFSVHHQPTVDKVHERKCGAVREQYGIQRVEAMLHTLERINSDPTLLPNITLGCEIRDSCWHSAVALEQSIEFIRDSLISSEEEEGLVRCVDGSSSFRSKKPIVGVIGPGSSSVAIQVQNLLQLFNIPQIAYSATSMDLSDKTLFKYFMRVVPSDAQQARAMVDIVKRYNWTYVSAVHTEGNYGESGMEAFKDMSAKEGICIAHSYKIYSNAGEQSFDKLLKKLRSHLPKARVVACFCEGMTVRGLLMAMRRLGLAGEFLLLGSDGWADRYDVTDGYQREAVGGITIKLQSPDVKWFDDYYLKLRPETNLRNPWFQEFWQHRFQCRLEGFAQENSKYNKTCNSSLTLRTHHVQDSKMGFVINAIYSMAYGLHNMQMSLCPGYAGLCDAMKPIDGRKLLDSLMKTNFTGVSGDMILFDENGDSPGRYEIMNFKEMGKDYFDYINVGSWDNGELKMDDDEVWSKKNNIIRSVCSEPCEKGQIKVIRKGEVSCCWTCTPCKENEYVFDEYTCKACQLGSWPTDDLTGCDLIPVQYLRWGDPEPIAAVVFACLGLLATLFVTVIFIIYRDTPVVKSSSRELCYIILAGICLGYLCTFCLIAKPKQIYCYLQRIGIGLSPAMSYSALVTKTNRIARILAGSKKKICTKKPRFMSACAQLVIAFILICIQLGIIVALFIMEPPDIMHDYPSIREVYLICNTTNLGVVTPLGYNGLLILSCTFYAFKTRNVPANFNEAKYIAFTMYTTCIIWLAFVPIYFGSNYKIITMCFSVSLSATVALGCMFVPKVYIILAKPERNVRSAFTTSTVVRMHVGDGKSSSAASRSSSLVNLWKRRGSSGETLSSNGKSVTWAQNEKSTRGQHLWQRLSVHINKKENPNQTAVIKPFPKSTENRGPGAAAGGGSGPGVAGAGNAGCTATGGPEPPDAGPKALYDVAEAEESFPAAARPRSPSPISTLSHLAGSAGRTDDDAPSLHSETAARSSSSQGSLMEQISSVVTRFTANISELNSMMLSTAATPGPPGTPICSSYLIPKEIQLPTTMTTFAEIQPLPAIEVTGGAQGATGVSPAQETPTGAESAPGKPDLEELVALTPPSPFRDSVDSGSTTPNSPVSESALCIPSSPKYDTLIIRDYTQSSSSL

Consider `Cc1nc(C(=O)NC23CC4CC(CC(NC(=O)c5cnccn5)(C4)C2)C3)cs1` [Example 187, Pyrazine-2-carboxylic acid {3-[(2-methyl-thiazole-4-carbonyl)-amino]-adamantan-1-yl}-amide], for which the Emax fell in the range of 63 to 99%. As to `Cc1cccc(C(=O)NC23CC4CC(C2)CC(NC(=O)c2cccc(Cl)n2)(C4)C3)n1` [Example 57, 6-Chloro-pyridine-2-carboxylic acid {3-[(6-methyl-pyridine-2-carbonyl)-amino]-adamantan-1-yl}-amide], the Emax was in the range of 63 to 99%. Next, `O=C(NC12CC3CC(C1)CC(NC(=O)c1ccno1)(C3)C2)c1ccccn1` [Example 77, Pyridine-2-carboxylic acid {3-[(isoxazole-5-carbonyl)-amino]-adamantan-1-yl}-amide]: 63 to 99%; `N#Cc1cccc(C(=O)NC23CC4CC(C2)CC(NC(=O)c2cccc(C#N)c2)(C4)C3)c1` [Example 5, N,N′-(1,3-adamantylene)bis(3-cyano-benzamide)]: 90 to 99%; `Cc1ccnc(C(=O)NC23CC4CC(CC(NC(=O)c5cnccn5)(C4)C2)C3)n1` [Example 189, 4-Methyl-pyrimidine-2-carboxylic acid {3-[(pyrazine-2-carbonyl)-amino]-adamantan-1-yl}-amide]: 63 to 99%. In the case of `Cc1cncc(C(=O)NC23CC4CC(CC(NC(=O)c5ccc(F)c(C)c5)(C4)C2)C3)n1` [Example 166, 6-Methyl-pyrazine-2-carboxylic acid [3-(4-fluoro-3-methyl-benzoylamino)-adamantan-1-yl]-amide] it was 63 to 99%. In the case of `Cc1cncc(C(=O)NC23CC4CC(C2)CC(NC(=O)c2cncc(C)n2)(C4)C3)c1` [Example 165, 6-Methyl-pyrazine-2-carboxylic acid {3-[(5-methyl-pyridine-3-carbonyl)-amino]-adamantan-1-yl}-amide] it was 63 to 99%; in that of `O=C(NC12CC3CC(C1)CC(NC(=O)c1ccccn1)(C3)C2)c1ccccc1` [Example 71, Pyridine-2-carboxylic acid (3-benzoylamino-adamantan-1-yl)-amide], 63 to 99%.

For `Cc1cncc(C(=O)NC23CC4CC(C2)CC(NC(=O)c2ncccc2C)(C4)C3)n1` [Example 168, 6-Methyl-pyrazine-2-carboxylic acid {3-[(3-methyl-pyridine-2-carbonyl)-amino]-adamantan-1-yl}-amide], the Emax is 63 to 99%. In the case of `O=C(NC12CC3CC(C1)CC(NC(=O)c1cccc(N4CCC[C@H]4CO)n1)(C3)C2)c1ccccn1` [Example 228, 6-((S)-2-Hydroxymethyl-pyrrolidin-1-yl)-pyridine-2-carboxylic acid {3-[(pyridine-2-carbonyl)-amino]-adamantan-1-yl}-amide] it was 63 to 99%. With `O=C(NC12CC3CC(C1)CC(NC(=O)C1CC1(F)F)(C3)C2)c1ccccn1` (centres unmarked) [Example 83, Pyridine-2-carboxylic acid {3-[(2,2-difluoro-cyclopropanecarbonyl)-amino]-adamantan-1-yl}-amide], the Emax was in the range of 63 to 99%. In the case of `COc1cccc(C(=O)NC23CC4CC(C2)CC(NC(=O)c2cncc(C)n2)(C4)C3)c1` [Example 146, 6-Methyl-pyrazine-2-carboxylic acid [3-(3-methoxy-benzoylamino)-adamantan-1-yl]-amide] it was 70 to 99%. Next, `Cc1cccc(C(=O)NC23CC4CC(CC(NC(=O)c5ccc6c(c5)OCCO6)(C4)C2)C3)n1` [Example 124, 6-Methyl-pyridine-2-carboxylic acid {3-[(2,3-dihydro-benzo[1,4]dioxine-6-carbonyl)-amino]-adamantan-1-yl}-amide]: 70 to 99%; `O=C(NC12CC3CC(C1)CC(NC(=O)c1cccs1)(C3)C2)c1cccs1` [Example 14, N,N′-(1,3-adamantylene)bis(thiophene-2-carboxamide)]: 63 to 99%. Next, `Cc1cncc(C(=O)NC23CC4CC(C2)CC(NC(=O)c2cc(F)ccc2F)(C4)C3)n1` [Example 148, 6-Methyl-pyrazine-2-carboxylic acid [3-(2,5-difluoro-benzoylamino)-adamantan-1-yl]-amide]: 70 to 99%.

Take `NC(=O)[C@@H]1CCCN1c1cccc(C(=O)NC23CC4CC(CC(NC(=O)c5cccc(F)c5)(C4)C2)C3)n1` [Example 251, 6-((S)-2-Carbamoyl-pyrrolidin-1-yl)-pyridine-2-carboxylic acid [3-(3-fluoro-benzoylamino)-adamantan-1-yl]-amide]: the Emax lay in the range of 63 to 99%. Consider `Cc1cccc(C(=O)NC23CC4CC(C2)CC(NC(=O)c2cccc(N(C)CCN(C)C)n2)(C4)C3)n1` [Example 204, 6-[(2-Dimethylamino-ethyl)-methyl-amino]-pyridine-2-carboxylic acid{3-[(6-methyl-pyridine-2-carbonyl)-amino]-adamantan-1-yl}-amide], for which the Emax was 63 to 99%. Next, `Cc1ccnc(C(=O)NC23CC4CC(CC(NC(=O)c5ccnc(C)n5)(C4)C2)C3)n1` [Example 193, 2-Methyl-pyrimidine-4-carboxylic acid {3-[(4-methyl-pyrimidine-2-carbonyl)-amino]-adamantan-1-yl}-amide]: 63 to 99%; `Cc1cccc(C(=O)NC23CC4CC(CC(NC(=O)c5ccncn5)(C4)C2)C3)n1` [Example 35, Pyrimidine-4-carboxylic acid {3-[(6-methyl-pyridine-2-carbonyl)-amino]-adamantan-1-yl}-amide]: 63 to 99%; `O=C(NC12CC3CC(C1)CC(NC(=O)c1ccncc1)(C3)C2)c1ccncc1` [Example 4, N,N′-(1,3-adamantylene)bis(4-pyridinecarboxamide)]: 90 to 99%.

On to `Cc1cnc(C(=O)NC23CC4CC(C2)CC(NC(=O)c2ccn(C)n2)(C4)C3)cn1` [Example 18, 5-Methyl-pyrazine-2-carboxylic acid {3-[(1-methyl-1H-pyrazole-3-carbonyl)-amino]-adamantan-1-yl}-amide], for which the Emax was 63 to 99%. Next, `N#Cc1cccc(C(=O)NC23CC4CC(C2)CC(NC(=O)c2ccccn2)(C4)C3)c1` [Example 7, Pyridine-2-carboxylic acid[3-(3-cyano-benzoylamino)-adamantan-1-yl]-acid]: 90 to 99%; `COCCN(C)c1cccc(C(=O)NC23CC4CC(CC(NC(=O)c5ccccn5)(C4)C2)C3)n1` [Example 225, 6-[(2-Methoxy-ethyl)-methyl-amino]-pyridine-2-carboxylic acid {3-[(pyridine-2-carbonyl)-amino]-adamantan-1-yl}-amide]: 63 to 99%; `O=C(NC12CC3CC(C1)CC(NC(=O)c1cccc(NCCCO)n1)(C3)C2)c1cccc(F)c1` [Example 214, 6-(3-Hydroxy-propylamino)-pyridine-2-carboxylic acid [3-(3-fluoro-benzoylamino)-adamantan-1-yl]-amide]: 63 to 99%.

As for `O=C(NC12CC3CC(C1)CC(NC(=O)c1ccccn1)(C3)C2)c1cccc(F)c1` [Example 59, Pyridine-2-carboxylic acid [3-(3-fluoro-benzoylamino)-adamantan-1-yl]-amide], the Emax fell in the range of 63 to 99%.

For `CC(=O)c1cccc(C(=O)NC23CC4CC(CC(NC(=O)c5cccc(C)n5)(C4)C2)C3)n1` [Example 142, 6-Methyl-pyridine-2-carboxylic acid {3-[(6-acetyl-pyridine-2-carbonyl)-amino]-adamantan-1-yl}-amide], the Emax lay in the range of 70 to 99%.
